Consider seven molecules from patent US8871753B2, “Macrocyclic compounds and their use as kinase inhibitors” (Incyte Corporation, priority 2008, dated 2014).

One may read the pIC50 as −log10 of the IC50, conventionally taken in molar units.

Holding throughout (format): biochemical
Assay [1] has as its target T1, human JAK3 (a.a. 781-1124) (Homo sapiens, UniProt P52333).
T1 construct: JAK3 (a.a. 781-1124); His tag (N); made in house; host or cells: insect cells (baculovirus)
The assay is described as follows: In vitro JAK kinase assay (HTRF, phosphorylation of a biotinylated peptide), JAK3. In outline:
(§1)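 Kinase reactions ran at room temperature for 1 h with ATP matched per isoform (JAK1 90 μM, JAK2 30 μM, JAK3 3 μM). After an EDTA stop, the phosphorylated biotin-peptide was read by HTRF using Eu-Py20 and SA-APC after 40 min binding.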
In general terms: Time-resolved FRET reads energy transfer from a long-lived donor to a nearby acceptor.

Assay [2] has as its target T2, human JAK2 (a.a. 828-1132) (Homo sapiens, UniProt O60674).
T2 construct: JAK2 (a.a. 828-1132); His tag (N); made in house; host or cells: insect cells (baculovirus)
Kind of assay: In vitro JAK kinase assay (HTRF, phosphorylation of a biotinylated peptide), JAK2. In outline:
as §1

The target in assay [3] is T3, human JAK1 (a.a. 837-1142) (Homo sapiens, UniProt P23458).
T3 construct: human JAK1 (a.a. 837-1142); His tag (N); made in house; host or cells: insect cells (baculovirus)
T3 sequence (P23458 849-1154): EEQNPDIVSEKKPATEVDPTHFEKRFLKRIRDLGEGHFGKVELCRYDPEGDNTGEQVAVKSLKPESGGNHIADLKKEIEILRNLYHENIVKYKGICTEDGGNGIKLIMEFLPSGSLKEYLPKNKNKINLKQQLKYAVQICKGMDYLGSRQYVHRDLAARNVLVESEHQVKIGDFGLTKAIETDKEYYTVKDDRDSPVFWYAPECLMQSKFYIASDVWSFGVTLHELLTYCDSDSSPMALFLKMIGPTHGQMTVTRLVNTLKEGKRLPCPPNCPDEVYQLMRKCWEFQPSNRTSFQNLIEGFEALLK
Kind of assay: In vitro JAK kinase assay (HTRF, phosphorylation of a biotinylated peptide), JAK1. Particulars: read-out: JAK1 IC50. In outline:
as §1

Assay [4] concerns the target TYK2 (Homo sapiens, UniProt P29597). The assay is described as follows: TYK2 kinase inhibition (Table A1).
Assay [5] addresses T4, Recombinant Human Anaplastic Lymphoma Kinase (Homo sapiens, UniProt Q9UM73).
T4 construct: purchased Invitrogen, Carlsbad, Calif
The assay is described as follows: ALK HTRF kinase assay. In outline:
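Kinase activity of the recombinant human protein is measured on a biotinylated peptide, with a Eu-W1024 anti-phosphotyrosine antibody and streptavidin-allophycocyanin generating the homogeneous time-resolved fluorescence signal. Inhibition curves are fitted to yield IC50.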

Where [6] appears, read: compound at a concentration of 500 nM or 1 mM (not specified), cells shown as percentage.

pIC50: −log10 of the molar value. Structures can show the parent of a compound that is named as a salt. Where two headings read alike, the source gives them in different places.

Sequence of TYK2 (P29597 whole entry): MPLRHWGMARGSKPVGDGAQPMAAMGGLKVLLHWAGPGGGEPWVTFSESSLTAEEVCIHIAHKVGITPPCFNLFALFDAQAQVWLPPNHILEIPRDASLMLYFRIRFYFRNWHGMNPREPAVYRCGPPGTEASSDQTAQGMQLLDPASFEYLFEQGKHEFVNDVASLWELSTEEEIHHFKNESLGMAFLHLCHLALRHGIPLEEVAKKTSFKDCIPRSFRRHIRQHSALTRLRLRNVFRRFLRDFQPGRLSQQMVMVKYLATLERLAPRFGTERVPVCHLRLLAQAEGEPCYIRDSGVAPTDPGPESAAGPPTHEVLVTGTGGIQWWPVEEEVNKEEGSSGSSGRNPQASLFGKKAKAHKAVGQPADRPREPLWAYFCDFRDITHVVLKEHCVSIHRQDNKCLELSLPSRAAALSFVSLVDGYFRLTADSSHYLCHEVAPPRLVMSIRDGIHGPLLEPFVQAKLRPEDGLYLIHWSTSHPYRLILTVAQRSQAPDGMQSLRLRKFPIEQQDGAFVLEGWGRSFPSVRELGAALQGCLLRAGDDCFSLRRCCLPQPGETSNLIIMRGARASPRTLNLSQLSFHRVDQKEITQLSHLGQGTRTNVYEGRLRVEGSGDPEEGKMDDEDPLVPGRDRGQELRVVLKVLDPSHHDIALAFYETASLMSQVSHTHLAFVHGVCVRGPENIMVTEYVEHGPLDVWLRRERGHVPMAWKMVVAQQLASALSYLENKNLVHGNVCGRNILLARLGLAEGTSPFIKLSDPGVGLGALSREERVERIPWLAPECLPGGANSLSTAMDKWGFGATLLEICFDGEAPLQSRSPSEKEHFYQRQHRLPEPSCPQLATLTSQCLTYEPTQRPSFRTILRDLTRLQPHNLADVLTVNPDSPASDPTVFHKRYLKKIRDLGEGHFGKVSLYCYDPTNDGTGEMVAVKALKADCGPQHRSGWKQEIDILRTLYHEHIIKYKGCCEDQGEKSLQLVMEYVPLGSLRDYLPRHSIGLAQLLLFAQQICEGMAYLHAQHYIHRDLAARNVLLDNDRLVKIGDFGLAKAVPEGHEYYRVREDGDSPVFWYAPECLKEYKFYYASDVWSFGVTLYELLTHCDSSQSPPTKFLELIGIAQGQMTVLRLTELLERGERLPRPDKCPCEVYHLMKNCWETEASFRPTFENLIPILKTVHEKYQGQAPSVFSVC
T4 sequence (Q9UM73 19-1620): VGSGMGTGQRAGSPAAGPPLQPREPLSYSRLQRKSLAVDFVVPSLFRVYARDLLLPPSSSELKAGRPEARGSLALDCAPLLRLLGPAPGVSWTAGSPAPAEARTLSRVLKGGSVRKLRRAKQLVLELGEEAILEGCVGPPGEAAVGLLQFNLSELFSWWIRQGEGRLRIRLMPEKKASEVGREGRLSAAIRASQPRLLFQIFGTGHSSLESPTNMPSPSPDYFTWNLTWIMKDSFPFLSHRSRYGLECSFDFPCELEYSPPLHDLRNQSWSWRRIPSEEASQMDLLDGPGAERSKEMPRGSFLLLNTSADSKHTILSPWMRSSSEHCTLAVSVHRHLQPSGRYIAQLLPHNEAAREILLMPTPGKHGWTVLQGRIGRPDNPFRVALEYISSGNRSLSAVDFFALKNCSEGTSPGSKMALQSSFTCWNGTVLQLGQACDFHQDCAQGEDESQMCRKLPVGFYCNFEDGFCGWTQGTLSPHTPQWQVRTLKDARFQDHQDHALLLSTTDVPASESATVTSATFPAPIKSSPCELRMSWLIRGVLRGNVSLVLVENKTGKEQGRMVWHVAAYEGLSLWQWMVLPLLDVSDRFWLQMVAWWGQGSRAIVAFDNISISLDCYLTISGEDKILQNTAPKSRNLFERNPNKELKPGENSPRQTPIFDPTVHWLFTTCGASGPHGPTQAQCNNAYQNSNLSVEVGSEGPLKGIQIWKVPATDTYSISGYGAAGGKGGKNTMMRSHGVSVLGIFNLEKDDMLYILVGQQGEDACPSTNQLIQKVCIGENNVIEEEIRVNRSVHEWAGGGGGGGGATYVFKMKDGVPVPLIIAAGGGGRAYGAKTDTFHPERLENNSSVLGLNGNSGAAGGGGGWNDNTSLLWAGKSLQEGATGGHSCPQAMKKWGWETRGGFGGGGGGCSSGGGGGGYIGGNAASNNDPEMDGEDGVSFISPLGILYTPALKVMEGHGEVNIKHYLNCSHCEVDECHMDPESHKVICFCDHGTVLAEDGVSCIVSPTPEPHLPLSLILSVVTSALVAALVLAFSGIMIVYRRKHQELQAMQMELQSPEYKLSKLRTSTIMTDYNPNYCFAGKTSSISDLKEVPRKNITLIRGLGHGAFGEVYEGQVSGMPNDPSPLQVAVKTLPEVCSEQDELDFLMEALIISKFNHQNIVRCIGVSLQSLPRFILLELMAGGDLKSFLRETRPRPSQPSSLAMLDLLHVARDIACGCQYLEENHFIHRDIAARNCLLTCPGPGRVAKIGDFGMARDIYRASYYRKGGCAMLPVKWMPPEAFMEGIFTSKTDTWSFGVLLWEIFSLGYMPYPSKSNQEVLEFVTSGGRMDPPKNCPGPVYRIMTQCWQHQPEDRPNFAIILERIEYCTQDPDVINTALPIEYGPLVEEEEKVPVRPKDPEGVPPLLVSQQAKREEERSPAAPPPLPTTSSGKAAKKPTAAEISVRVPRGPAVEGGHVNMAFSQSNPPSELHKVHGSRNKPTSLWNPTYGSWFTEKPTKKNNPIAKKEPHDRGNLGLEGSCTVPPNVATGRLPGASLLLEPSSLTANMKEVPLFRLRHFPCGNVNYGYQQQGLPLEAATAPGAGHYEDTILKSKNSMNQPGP
T2 sequence (O60674 828-1132): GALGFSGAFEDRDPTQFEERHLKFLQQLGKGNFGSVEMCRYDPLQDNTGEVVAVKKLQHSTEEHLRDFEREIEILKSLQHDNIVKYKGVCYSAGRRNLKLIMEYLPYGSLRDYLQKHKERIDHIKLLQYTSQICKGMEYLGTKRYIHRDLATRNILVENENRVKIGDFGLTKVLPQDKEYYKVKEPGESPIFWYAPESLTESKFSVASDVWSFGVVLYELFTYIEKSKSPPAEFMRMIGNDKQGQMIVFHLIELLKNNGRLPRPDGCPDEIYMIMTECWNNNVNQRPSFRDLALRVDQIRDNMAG
T1 sequence (P52333 781-1124): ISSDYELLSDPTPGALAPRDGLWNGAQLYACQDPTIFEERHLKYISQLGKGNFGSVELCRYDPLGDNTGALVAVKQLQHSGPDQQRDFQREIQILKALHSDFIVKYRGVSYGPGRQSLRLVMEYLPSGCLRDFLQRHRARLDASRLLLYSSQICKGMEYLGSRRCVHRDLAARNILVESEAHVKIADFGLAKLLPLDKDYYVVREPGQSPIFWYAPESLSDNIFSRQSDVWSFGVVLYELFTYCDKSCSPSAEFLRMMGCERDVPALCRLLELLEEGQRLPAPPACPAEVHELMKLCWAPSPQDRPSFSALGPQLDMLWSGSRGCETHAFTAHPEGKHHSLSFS

In the case of `O=S1(=O)CCc2cccc(c2)Nc2ncc(Cl)c(n2)Nc2cccc1c2` [Example D24, 6-chloro-14-thia-2,4,8,23-tetraazatetracyclo[15.3.1.1(3,7).1(9,13)]tricosa-1(21),3(23),4,6,9(22),10,12,17,19-nonaene 14,14-dioxide trifluoroacetate], the pIC50 in assay [1] (Table D1) was 7.70; in assay [2] (Table D1) it was 8.22; in assay [3] (Table D1), 8.30; in assay [4] (Table D1) it was 7.80; in assay [5] (Table D1, 90 μM ATP) it was 5.86.

As to `NCCC(=O)Nc1ccc2cc1CCc1cccc(c1)Nc1ncc(Cl)c(n1)N2` [Example A108, 3-Amino-N-[6-chloro-2,4,8,22-tetraazatetracyclo[14.3.1.1(3,7).1(9,13)]docosa-1(20),3(22),4,6,9(21),10,12,16,18-nonaen-12-yl]propanamide bis(trifluoroacetate)], the pIC50 in assay [1] (method AA1 (3 μM ATP) or AA2 (1000 μM ATP), not stated per value) was 7.59; in assay [2] (method AA1 (30 μM ATP) or AA2 (1000 μM ATP), not stated per value), 7.49; in assay [3] (method AA1 (90 μM ATP) or AA2 (1000 μM ATP), not stated per value), 8.22; in assay [4], 7.82. Further, the “ALK % of inhibition at a concentration of 500 nM or 1 mM” value (“ALK % of inhibition” for short) in assay [5] (compound at 500 nM or 1 mM, 90 μM ATP) is 32%.

Consider `O=C(NO)Nc1ccc2cc1CCc1cccc(c1)Nc1ncc(Cl)c(n1)N2` [Example B324, N-[6-Chloro-2,4,8,22-tetraazatetracyclo[14.3.1.1(3,7).1(9,13)]docosa-1(20),3(22),4,6,9(21),10,12,16,18-nonaen-12-yl]-N′-hydroxyurea trifluoroacetate], for which the pIC50 is 8.12 in assay [1] (Table B1), 7.25 in assay [2] (Table B1), 7.70 in assay [3] (Table B1) and 8.55 in assay [4] (Table B1). Also, the “ALK % of inhibition” value in assay [5] (percentage inhibition of the example compound at a concentration of 500 nM or 1 mM (not specified which)) is given as 16%.

On to `OCc1ccc2cc1CCc1cccc(c1)Nc1ncc(Cl)c(n1)N2` [Example B23, [6-Chloro-2,4,8,22-tetraazatetracyclo[14.3.1.1(3,7).1(9,13)]docosa-1(20),3(22),4,6,9(21),10,12,16,18-nonaen-12-yl]methanol trifluoroacetate], for which the pIC50 was 8.92 in assay [1] (Table B1), 9.10 in assay [2] (Table B1), 9.70 in assay [3] (Table B1) and 8.74 in assay [4] (Table B1). Moreover, the “ALK % of inhibition” value in assay [5] (setting [6]) came to 75%.

As to `COc1ccc(S(=O)(=O)Nc2ccc3cc2CCc2cccc(c2)Nc2ncc(Cl)c(n2)N3)cc1` [Example B156, N-[6-Chloro-2,4,8,22-tetraazatetracyclo[14.3.1.1(3,7).1(9,13)]docosa-1(20), 3(22),4,6,9(21),10,12,16,18-nonaen-12-yl]-4-methoxybenzenesulfonamide trifluoroacetate], the pIC50 is 7.77 in assay [1] (Table B1), 8.82 in assay [2] (Table B1), 9.12 in assay [3] (Table B1) and 8.57 in assay [4] (Table B1). Moreover, in assay [5] (setting [6]), the “ALK % of inhibition” value was 28%.

Consider `O=C(Nc1ccc2cc1CCc1cccc(c1)Nc1ncc(Cl)c(n1)N2)Nc1cccc2ccccc12` [Example B124, N-[6-Chloro-2,4,8,22-tetraazatetracyclo[14.3.1.1(3,7).1(9,13)]docosa-1(20),3(22),4,6,9(21),10,12,16,18-nonaen-12-yl]-N′-1-naphthylurea trifluoroacetate], for which the pIC50 in assay [1] (Table B1) is 7.48; in assay [2] (Table B1) it was 8.34; in assay [3] (Table B1), 8.41; in assay [4] (Table B1) it was 7.89. Besides, the “ALK % of inhibition” value in assay [5] (setting [6]) was 17%.

`CC(=O)N1CC[C@H](NC(=O)Nc2ccc3cc2CCc2cncc(c2)Nc2ncc(Cl)c(n2)N3)C1` [Example B226, N-[(3S)-1-Acetylpyrrolidin-3-yl]-N′-[6-chloro-2,4,8,18,22-pentaazatetracyclo[14.3.1.1(3,7).1(9,13)]docosa-1(20),3(22),4,6,9(21),10,12,16,18-nonaen-12-yl]urea bis(trifluoroacetate)]: the pIC50 in assay [1] (Table B1) was 6.51; in assay [2] (Table B1) it was 7.38; in assay [3] (Table B1) it was 8.40; in assay [4] (Table B1), 7.21. For the same molecule, in assay [5] (setting [6]), the “ALK % of inhibition” value is 15%.
